Measured values reported in the supplement of paper PMC10307832.

What was measured:
Test in all cases: relative viability (nuclei count vs DMSO), 5 days (fraction); higher = more cells survive
CAL-12T = tested on: CAL-12T
How it was run: (§1)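 Nuclei were stained with Hoechst during a one-step fixation (final 0.05% Triton X-100, 1% formaldehyde, 1 ug/ml Hoechst) carried out 5 days after dosing, then counted on 4× images. The cells, lung cancer lines in 1536-well plates, had been dosed by pin tool the day after seeding with one drug alone or a fixed anchor-drug dose plus five library-drug doses (not always all listed) in √10 steps. Relative viability is the nuclei count in treated wells divided by that in vehicle wells, and each value is the median of duplicate plates.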

COR-L23 = tested on: COR-L23
How it was run: as §1

EKVX = tested on: EKVX
How it was run: as §1

H3255 = tested on: H3255
How it was run: as §1

HCC-15 = tested on: HCC-15
How it was run: as §1

HCC-827 = tested on: HCC-827
How it was run: as §1

LK-2 = tested on: LK-2
How it was run: as §1

NCI-H1355 = tested on: NCI-H1355
How it was run: as §1

NCI-H1437 = tested on: NCI-H1437
How it was run: as §1

NCI-H1650 = tested on: NCI-H1650
How it was run: as §1

NCI-H1651 = tested on: NCI-H1651
How it was run: as §1

NCI-H1734 = tested on: NCI-H1734
How it was run: as §1

NCI-H2228 = tested on: NCI-H2228
How it was run: as §1

NCI-H2405 = tested on: NCI-H2405
How it was run: as §1

NCI-H322M = tested on: NCI-H322M
How it was run: as §1

NCI-H520 = tested on: NCI-H520
How it was run: as §1

PC-14 = tested on: PC-14
How it was run: as §1

PC-3 [JPC-3] = tested on: PC-3 [JPC-3]
How it was run: as §1

RERF-LC-KJ = tested on: RERF-LC-KJ
How it was run: as §1

SK-MES-1 = tested on: SK-MES-1
How it was run: as §1

SW 1573 = tested on: SW 1573
How it was run: as §1

NCI-H661 = tested on: NCI-H661
How it was run: as §1

Structure (SMILES): CC(C)Oc1cc(Nc2nc(N[C@@H](C)c3ccc(F)cn3)ncc2Cl)n[nH]1 [AZ23] + CC1(C)CCC(c2ccc(Cl)cc2)=C(CN2CCN(c3ccc(C(=O)NS(=O)(=O)c4ccc(N[C@H](CCN5CCOCC5)CSc5ccccc5)c(S(=O)(=O)C(F)(F)F)c4)cc3)CC2)C1 [Navitoclax] (partner 0.5 µM)
- relative viability (CAL-12T; first compound 0.01 µM): 0.61
- relative viability (CAL-12T; first compound 0.03162 µM): 1.28
- relative viability (CAL-12T; first compound 0.3162 µM): 1.17
- relative viability (COR-L23; first compound 0.01 µM): 0.839
- relative viability (COR-L23; first compound 0.03162 µM): 1.11
- relative viability (COR-L23; first compound 0.3162 µM): 1.05
- relative viability (EKVX; first compound 0.01 µM): 1.12
- relative viability (EKVX; first compound 0.03162 µM): 1.29
- relative viability (EKVX; first compound 0.3162 µM): 1.02
- relative viability (H3255; first compound 0.01 µM): 0.514
- relative viability (H3255; first compound 0.03162 µM): 0.677
- relative viability (H3255; first compound 0.3162 µM): 0.556
- relative viability (HCC-15; first compound 0.01 µM): 0.744
- relative viability (HCC-15; first compound 0.03162 µM): 0.798
- relative viability (HCC-15; first compound 0.3162 µM): 0.71
- relative viability (HCC-827; first compound 0.01 µM): 1
- relative viability (HCC-827; first compound 0.03162 µM): 1.04
- relative viability (HCC-827; first compound 0.3162 µM): 0.991
- relative viability (LK-2; first compound 0.01 µM): 0.653
- relative viability (LK-2; first compound 0.03162 µM): 0.915
- relative viability (LK-2; first compound 0.3162 µM): 0.909
- relative viability (NCI-H1355; first compound 0.01 µM): 0.999
- relative viability (NCI-H1355; first compound 0.03162 µM): 0.896
- relative viability (NCI-H1355; first compound 0.3162 µM): 0.833
- relative viability (NCI-H1437; first compound 0.01 µM): 1.33
- relative viability (NCI-H1437; first compound 0.03162 µM): 1.29
- relative viability (NCI-H1437; first compound 0.3162 µM): 1.13
- relative viability (NCI-H1650; first compound 0.01 µM): 0.925
- relative viability (NCI-H1650; first compound 0.03162 µM): 1.28
- relative viability (NCI-H1650; first compound 0.3162 µM): 1.05
- relative viability (NCI-H1651; first compound 0.01 µM): 0.887
- relative viability (NCI-H1651; first compound 0.03162 µM): 1.11
- relative viability (NCI-H1651; first compound 0.3162 µM): 1.11
- relative viability (NCI-H1734; first compound 0.01 µM): 0.905
- relative viability (NCI-H1734; first compound 0.03162 µM): 0.973
- relative viability (NCI-H1734; first compound 0.3162 µM): 0.721
- relative viability (NCI-H2228; first compound 0.01 µM): 0.848
- relative viability (NCI-H2228; first compound 0.03162 µM): 0.963
- relative viability (NCI-H2228; first compound 0.3162 µM): 0.709
- relative viability (NCI-H2405; first compound 0.01 µM): 0.8
- relative viability (NCI-H2405; first compound 0.03162 µM): 0.915
- relative viability (NCI-H2405; first compound 0.3162 µM): 0.781
- relative viability (NCI-H322M; first compound 0.01 µM): 1.24
- relative viability (NCI-H322M; first compound 0.03162 µM): 1.09
- relative viability (NCI-H322M; first compound 0.3162 µM): 1.29
- relative viability (NCI-H520; first compound 0.01 µM): 0.972
- relative viability (NCI-H520; first compound 0.03162 µM): 1.31
- relative viability (NCI-H520; first compound 0.3162 µM): 1.08
- relative viability (PC-14; first compound 0.01 µM): 0.989
- relative viability (PC-14; first compound 0.03162 µM): 1.21
- relative viability (PC-14; first compound 0.3162 µM): 1.1
- relative viability (PC-3 [JPC-3]; first compound 0.01 µM): 0.881
- relative viability (PC-3 [JPC-3]; first compound 0.03162 µM): 0.863
- relative viability (PC-3 [JPC-3]; first compound 0.3162 µM): 0.762
- relative viability (RERF-LC-KJ; first compound 0.01 µM): 0.719
- relative viability (RERF-LC-KJ; first compound 0.03162 µM): 1.15
- relative viability (RERF-LC-KJ; first compound 0.3162 µM): 0.879
- relative viability (SK-MES-1; first compound 0.01 µM): 1.4
- relative viability (SK-MES-1; first compound 0.03162 µM): 1.42
- relative viability (SK-MES-1; first compound 0.3162 µM): 1.33
- relative viability (SW 1573; first compound 0.01 µM): 0.991
- relative viability (SW 1573; first compound 0.03162 µM): 0.952
- relative viability (SW 1573; first compound 0.3162 µM): 0.833

Structure (SMILES): CC(C)Oc1cc(Nc2nc(N[C@@H](C)c3ccc(F)cn3)ncc2Cl)n[nH]1 [AZ23] + CC(=O)Nc1cccc(-n2c(=O)n(C3CC3)c(=O)c3c(Nc4ccc(I)cc4F)n(C)c(=O)c(C)c32)c1 [Trametinib] (partner 0.02 µM)
- relative viability (CAL-12T; first compound 0.03162 µM): 0.28
- relative viability (CAL-12T; first compound 0.3162 µM): 0.368
- relative viability (COR-L23; first compound 0.01 µM): 0.446
- relative viability (COR-L23; first compound 0.03162 µM): 0.659
- relative viability (COR-L23; first compound 0.3162 µM): 0.612
- relative viability (EKVX; first compound 0.01 µM): 0.346
- relative viability (EKVX; first compound 0.03162 µM): 0.351
- relative viability (EKVX; first compound 0.3162 µM): 0.332
- relative viability (H3255; first compound 0.01 µM): 0.595
- relative viability (H3255; first compound 0.03162 µM): 0.609
- relative viability (H3255; first compound 0.3162 µM): 0.632
- relative viability (HCC-15; first compound 0.01 µM): 0.382
- relative viability (HCC-15; first compound 0.03162 µM): 0.413
- relative viability (HCC-15; first compound 0.3162 µM): 0.243
- relative viability (HCC-827; first compound 0.01 µM): 0.456
- relative viability (HCC-827; first compound 0.03162 µM): 0.563
- relative viability (HCC-827; first compound 0.3162 µM): 0.557
- relative viability (LK-2; first compound 0.01 µM): 0.949
- relative viability (LK-2; first compound 0.03162 µM): 0.916
- relative viability (LK-2; first compound 0.3162 µM): 0.681
- relative viability (NCI-H1355; first compound 0.01 µM): 0.359
- relative viability (NCI-H1355; first compound 0.03162 µM): 0.417
- relative viability (NCI-H1355; first compound 0.3162 µM): 0.353
- relative viability (NCI-H1437; first compound 0.01 µM): 0.503
- relative viability (NCI-H1437; first compound 0.03162 µM): 0.512
- relative viability (NCI-H1437; first compound 0.3162 µM): 0.651
- relative viability (NCI-H1650; first compound 0.01 µM): 0.546
- relative viability (NCI-H1650; first compound 0.03162 µM): 0.589
- relative viability (NCI-H1650; first compound 0.3162 µM): 0.659
- relative viability (NCI-H1651; first compound 0.01 µM): 0.829
- relative viability (NCI-H1651; first compound 0.03162 µM): 0.87
- relative viability (NCI-H1651; first compound 0.3162 µM): 0.854
- relative viability (NCI-H1734; first compound 0.01 µM): 0.733
- relative viability (NCI-H1734; first compound 0.03162 µM): 0.726
- relative viability (NCI-H1734; first compound 0.3162 µM): 0.436
- relative viability (NCI-H2228; first compound 0.01 µM): 0.523
- relative viability (NCI-H2228; first compound 0.03162 µM): 0.631
- relative viability (NCI-H2228; first compound 0.3162 µM): 0.401
- relative viability (NCI-H2405; first compound 0.01 µM): 0.572
- relative viability (NCI-H2405; first compound 0.03162 µM): 0.673
- relative viability (NCI-H2405; first compound 0.3162 µM): 0.599
- relative viability (NCI-H322M; first compound 0.01 µM): 0.454
- relative viability (NCI-H322M; first compound 0.03162 µM): 0.481
- relative viability (NCI-H322M; first compound 0.3162 µM): 0.565
- relative viability (NCI-H520; first compound 0.01 µM): 0.853
- relative viability (NCI-H520; first compound 0.03162 µM): 0.707
- relative viability (NCI-H520; first compound 0.3162 µM): 0.587
- relative viability (NCI-H661; first compound 0.01 µM): 0.611
- relative viability (NCI-H661; first compound 0.03162 µM): 0.575
- relative viability (NCI-H661; first compound 0.3162 µM): 0.547
- relative viability (PC-14; first compound 0.01 µM): 0.599
- relative viability (PC-14; first compound 0.03162 µM): 0.783
- relative viability (PC-14; first compound 0.3162 µM): 0.749
- relative viability (PC-3 [JPC-3]; first compound 0.01 µM): 0.612
- relative viability (PC-3 [JPC-3]; first compound 0.03162 µM): 0.787
- relative viability (PC-3 [JPC-3]; first compound 0.3162 µM): 0.735
- relative viability (RERF-LC-KJ; first compound 0.01 µM): 0.837
- relative viability (RERF-LC-KJ; first compound 0.03162 µM): 0.883
- relative viability (RERF-LC-KJ; first compound 0.3162 µM): 0.862
- relative viability (SK-MES-1; first compound 0.03162 µM): 0.578
- relative viability (SK-MES-1; first compound 0.3162 µM): 0.59
- relative viability (SW 1573; first compound 0.01 µM): 0.693
- relative viability (SW 1573; first compound 0.03162 µM): 0.604
- relative viability (SW 1573; first compound 0.3162 µM): 0.458
